{"source": "patent US20240262842A1", "about": "“SMALL MOLECULE INHIBITORS OF KRAS G12C MUTANT” (Merck Sharp & Dohme LLC, priority 2021, published 2024)", "key": {"[1]": {"target": "T1, interaction between GMPPNP-bound recombinant K-Ras4B G12C mutant protein and cRAF RAS-binding domain (cRAF-RBD) (Homo sapiens, UniProt P01116, G12C)", "T1 construct": "His-tag (N)", "T1 sequence (P01116 with tags, fused parts or gaps isoform P01116-2 G12C)": "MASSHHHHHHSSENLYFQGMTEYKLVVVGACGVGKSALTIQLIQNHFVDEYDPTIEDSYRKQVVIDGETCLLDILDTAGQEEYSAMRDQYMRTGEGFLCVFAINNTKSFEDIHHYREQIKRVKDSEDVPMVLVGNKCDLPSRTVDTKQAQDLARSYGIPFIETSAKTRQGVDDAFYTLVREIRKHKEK", "assay": "Inhibitory activity on interaction between KRAS G12C and cRAF (Alpha technology)", "method": "Interaction between recombinant K-Ras4B G12C mutant protein (amino acids 1-169, SEQ ID NO:2) and cRAF RAS-binding domain (cRAF-RBD, amino acids 50-132, Jena Biosciences GmbH) was measured using Alpha technology (PerkinElmer Inc.).\nRecombinant KRAS G12C protein with an N-terminal His-tag was expressed in E. coli and purified by affinity chromatography. To prepare GTP-bound form and GDP-bound form of KRAS G12C protein, 50 μM KRAS G12C protein was incubated with 1 mM GMPPNP (Guanosine-5′-[(β,γ)-imido]triphosphate, Tetralithium salt) (Jena Bioscience GmbH) and 1 mM GDP, respectively, in a loading buffer (20 mM Tris-HCl (pH 7.5), 50 mM NaCl, 1 mM DTT and 2.5 mM EDTA) for 1 hour on ice. After the incubation, MgCl2 was added to a final concentration of 10 mM, followed by incubation at room temperature for 30 minutes. The mixture was allowed to pass through a NAP-5 column to remove free nucleotides and purified, and the resultant nucleotide-bound KRAS G12C protein was used for compound evaluation.\nFor the measurement of the inhibitory activity of compounds on interaction between KRAS G12C and cRAF-RBD, GMPPNP-bound KRAS G12C protein was incubated with various concentrations of compound in a reaction buffer (20 mM Tris-HCl (pH 7.5), 100 mM NaCl, 1 mM MgCl2, 1 mM TCEP, 0.1% Tween 20) at 25° C. for 1 hour. After the incubation, recombinant cRAF-RBD and Alpha detection reagents were added and incubated at room temperature for 1.5 hours for binding. Interaction of KRAS G12C and cRAF-RBD was monitored by measuring Alpha signal. Inhibition % was calculated using the signal from the reaction without test compound (DMSO control) as 0% inhibition and the signal from the reaction using GDP-bound KRAS G12C in place of GMPPNP-bound KRAS G12C as 100% inhibition. IC50 values were calculated from dose titration curve using curve fitting by XLfit software (IDBS)."}, "MIA PaCa-2 cells": {"tested_on": "MIA PaCa-2 cells", "assay": "Growth inhibition activity on KRAS-G12C mutant cell line (CellTiter-Glo 3D)", "format": "cell-based, human", "conditions": "MIA PaCa-2, 3-day culture with compound", "method": "MIA PaCa-2 cells (given by Sumitomo Dainippon Pharma Co., Ltd.), which are a KRAS-G12C mutant human pancreas cancer cell line, were suspended in a 10% fetal bovine serum-containing RPMI1640 medium (manufactured by Fujifilm Wako Pure Chemical Corporation). The cell suspension was seeded into each well of a 384-well U bottom microplate and cultured in an incubator containing 5% CO2 gas at 37° C. for 1 day. The compounds obtained in the “Preparation of Compounds” section were used as test compounds and were dissolved in DMSO, respectively, and each test compound was diluted with DMSO to give a concentration 500 times the final concentration. The resultant solution of the test compound in DMSO was diluted with the medium used for suspending cells and added to each well of the cell-culture plate to give a DMSO final concentration of 0.2%, followed by culture in an incubator containing 5% CO2 gas at 37° C. for another 3 days. The cell count after 3-day culture in the presence of the test compound was measured using CellTiter-Glo 3D Reagent (manufactured by Promega Corporation). All wells were added with CellTiter-Glo 3D Reagent and mixed for 10 minutes. 30 minutes after mixing, luminescence was measured by a plate reader. The growth inhibition rate was calculated from the following equation, and the concentration of the test compound at which 50% inhibition was achieved (IC50 (nM)) was determined.\n[formula] • T: the emission intensity in a well into which a test compound was added. • C: the emission intensity in a well into which a test compound was not added."}, "[2]": {"conditions": "GMPPNP-bound KRAS G12C incubated with compound 25° C. 1 hour, Table 2, read-out: IC50"}, "[3]": {"conditions": "GMPPNP-bound KRAS G12C incubated with compound 25° C. 1 hour, Table 2-1, read-out: IC50"}, "[4]": {"conditions": "Homo sapiens, MIA PaCa-2, 72 h, Table 3-1"}, "[5]": {"conditions": "IC50, GMPPNP-bound KRAS G12C incubated with compound 25° C. 1 hour, Table 2-1"}}, "note": "Read-outs that look alike come from different tables or passages of the source.", "data": [{"smiles": "Cc1nc2c3c(c(C(F)(F)F)cc2n1C)-c1cccn2c(C(=O)c4cc(F)c(NC(=O)/C=C/CNC5(C)COC5)c(F)c4)cc(c12)CCO3", "note": "(single isomer, unassigned) [Example 31-2, (E)-N-(4-(9,10-dimethyl-7-(trifluoromethyl)-13,14-dihydro-9H-imidazo[4″,5″:5′,6′]benzo[1′,2′:2,3]oxocino[4,5,6-hi]indolizine-2-carbonyl)-2,6-difluorophenyl)-4-((3-methyloxetan-3-yl)amino)but-2-enamide]", "values": [{"measurement": "IC50", "setting": "[1]; [2]", "result": "> 6.7", "unit": "µM"}, {"measurement": "IC50", "setting": "MIA PaCa-2 cells; Table 3", "result": 9.2, "unit": "µM"}]}, {"smiles": "Cc1nc2c3c(c(C(F)(F)F)cc2n1C)-c1cccn2c(C(=O)c4cc(F)c(NC(=O)/C=C/CN(C)C)c(F)c4)cc(c12)CCO3", "note": "(single isomer, unassigned) [Example 38-1]", "values": [{"measurement": "IC50", "setting": "[1]; [2]", "result": "> 6.7", "unit": "µM"}, {"measurement": "IC50", "setting": "MIA PaCa-2 cells; Table 3", "result": 8.3, "unit": "µM"}]}, {"smiles": "Cc1nc2c3c(c(C(F)(F)F)cc2n1C)-c1cccn2c(C(=O)c4cc(F)c(NC(=O)/C=C/CN(C)C)c(F)c4)cc(c12)CCO3", "note": "(single isomer, unassigned) [Example 38-2]", "values": [{"measurement": "IC50", "setting": "[1]; [2]", "result": 0.027, "unit": "µM"}, {"measurement": "IC50", "setting": "MIA PaCa-2 cells; Table 3", "result": 0.019, "unit": "µM"}]}, {"smiles": "CO[C@H]1CC[C@H](NC/C=C/C(=O)Nc2c(F)cc(C(=O)c3cc4c5c(cccn35)-c3c(C(F)(F)F)cc5c(nc(C)n5C)c3OC(C)C4)cc2F)CC1", "note": "(single isomer, unassigned) [Example 42-1, (E)-N-(2,6-difluoro-4-(9,10,13-trimethyl-7-(trifluoromethyl)-13,14-dihydro-9H-imidazo[4″,5″:5′,6′]benzo[1′,2′:2,3]oxocino[4,5,6-hi]indolizine-2-carbonyl)phenyl)-4-(((1r,4r)-4-methoxycyclohexyl)amino)but-2-enamide]", "values": [{"measurement": "IC50", "setting": "[1]; [2]", "result": 0.011, "unit": "µM"}, {"measurement": "IC50", "setting": "MIA PaCa-2 cells; Table 3", "result": 0.006, "unit": "µM"}]}, {"smiles": "CO[C@H]1CC[C@H](NC/C=C/C(=O)Nc2c(F)cc(C(=O)c3cc4c5c(cccn35)-c3c(C(F)(F)F)cc5c(nc(C)n5C)c3OC(C)C4)cc2F)CC1", "note": "(single isomer, unassigned) [Example 42-2, (E)-N-(2,6-difluoro-4-(9,10,13-trimethyl-7-(trifluoromethyl)-13,14-dihydro-9H-imidazo[4″,5″:5′,6′]benzo[1′,2′:2,3]oxocino[4,5,6-hi]indolizine-2-carbonyl)phenyl)-4-(((1r,4r)-4-methoxycyclohexyl)amino)but-2-enamide]", "values": [{"measurement": "IC50", "setting": "[1]; [2]", "result": 1.1, "unit": "µM"}, {"measurement": "IC50", "setting": "MIA PaCa-2 cells; Table 3", "result": 0.45, "unit": "µM"}]}, {"smiles": "Cc1nc2c3c(c(C(F)(F)F)cc2n1C)-c1cccn2c(C(=O)c4cc(F)c(NC(=O)/C=C/CNC5(C)CCOC5)c(F)c4)cc(c12)CCO3", "note": "(single isomer, unassigned) [Example 52]", "values": [{"measurement": "IC50", "setting": "[1]; [3]", "result": 0.00455, "unit": "µM"}, {"measurement": "IC50", "setting": "MIA PaCa-2 cells; [4]", "result": 0.00144, "unit": "µM"}]}, {"smiles": "Cc1nc2c3c(c(C(F)(F)F)cc2n1C)-c1cccc2c(C(=O)c4cc(F)c(NC(=O)/C=C/CNC5(C)COC5)c(F)c4)cn(c12)CCN3C", "note": "(single isomer, unassigned) [Example 54]", "values": [{"measurement": "IC50", "setting": "[1]; [5]", "result": 0.0221, "unit": "µM"}, {"measurement": "IC50", "setting": "MIA PaCa-2 cells; [4]", "result": 0.00539, "unit": "µM"}]}, {"smiles": "CO[C@H]1CC[C@H](NC/C=C/C(=O)Nc2c(F)cc(C(=O)c3cn4c5c(cccc35)-c3c(C(F)(F)F)cc5c(nc(C)n5C)c3N(C)CC4)cc2F)CC1", "note": "(single isomer, unassigned) [Example 55, (E)-N-(2,6-difluoro-4-(8,9,11-trimethyl-6-(tri-fluoromethyl)-8,11,12,13-tetrahydroimidazo[4″,5″: 5′,6′]benzo[1′,2′:5,6][1,4]-diazocino[7,8,1-hi]indole-2-carbonyl)phenyl)-4-(((1r,4r)-4-methoxycyclo-hexyl)amino)but-2-en-amide]", "values": [{"measurement": "IC50", "setting": "[1]; [5]", "result": 0.0117, "unit": "µM"}, {"measurement": "IC50", "setting": "MIA PaCa-2 cells; [4]", "result": 0.00336, "unit": "µM"}]}, {"smiles": "CO[C@H]1CC[C@H](NC/C=C/C(=O)Nc2c(F)cc(C(=O)c3cn4c5c(cccc35)-c3c(C)cc5c(nc(C)n5C)c3N(C)CC4)cc2F)CC1", "note": "(single isomer, unassigned) [Example 62]", "values": [{"measurement": "IC50", "setting": "[1]; [5]", "result": 0.0174, "unit": "µM"}, {"measurement": "IC50", "setting": "MIA PaCa-2 cells; [4]", "result": 0.00691, "unit": "µM"}]}, {"smiles": "CO[C@H]1CC[C@H](NC/C=C/C(=O)Nc2c(F)cc(C(=O)c3cc4c5c(cccn35)-c3c(C(F)(F)F)cc5c(nc(C)n5C)c3N(C)CC4)cc2F)CC1", "note": "(single isomer, unassigned) [Example 63, (E)-N-(2,6-difluoro-4-(9,10,12-trimethyl-7-(tri-fluoromethyl)-9,12,13,14-tetrahydroimidazo-[4″,5″:5′,6′]benzo[1′,2′: 2,3]azocino[4,5,6-hi]-indolizine-2-carbonyl)-phenyl)-4-(((1r,4r)-4-methoxycyclohexyl)-amino)but-2-enamide]", "values": [{"measurement": "IC50", "setting": "[1]; [3]", "result": 0.0142, "unit": "µM"}, {"measurement": "IC50", "setting": "MIA PaCa-2 cells; [4]", "result": 0.00248, "unit": "µM"}]}, {"smiles": "CO[C@H]1CC[C@H](NC/C=C/C(=O)Nc2c(F)cc(C(=O)c3c(C)c4c5c(cccn35)-c3c(C(F)(F)F)cc5c(nc(C)n5C)c3OCC4)cc2F)CC1", "note": "(single isomer, unassigned) [Example 64, (E)-N-(2,6-difluoro-4-(1,9,10-trimethyl-7-(tri-fluoromethyl)-13,14-dihydro-9H-imidazo-[4″,5″:5′,6′]benzo[1′,2′: 2,3]oxocino[4,5,6-hi]-indolizine-2-carbonyl)-phenyl)-4-(((1r,4r)-4-methoxycyclohexyl)-amino)but-2-enamide]", "values": [{"measurement": "IC50", "setting": "[1]; [3]", "result": 0.0142, "unit": "µM"}, {"measurement": "IC50", "setting": "MIA PaCa-2 cells; [4]", "result": 0.011, "unit": "µM"}]}, {"smiles": "Cc1cc2c(nc(C)n2C)c2c1-c1cccc3c(C(=O)c4cc(F)c(NC(=O)/C=C/CNC5(C)COC5)c(F)c4)cn(c13)CCN2C", "note": "(single isomer, unassigned) [Example 65, (E)-N-(2,6-difluoro-4-(6,8,9,11-tetramethyl-8,11,12,13-tetrahydro-imidazo[4″,5″:5′,6′]benzo-[1′,2′:5,6][1,4]diazocino-[7,8,1-hi]indole-2-carbon-yl)phenyl)-4-((3-methyl-oxetan-3-yl)amino)but-2-enamide]", "values": [{"measurement": "IC50", "setting": "[1]; [5]", "result": 0.0696, "unit": "µM"}, {"measurement": "IC50", "setting": "MIA PaCa-2 cells; [4]", "result": 0.0951, "unit": "µM"}]}, {"smiles": "CO[C@H]1CC[C@H](NC/C=C/C(=O)Nc2c(F)cc(C(=O)c3cc4c5c(cccn35)-c3c(C)cc5c(nc(C)n5C)c3N(C)CC4)cc2F)CC1", "note": "(single isomer, unassigned) [Example 69, (E)-N-(2,6-difluoro-4-(7,9,10,12-tetramethyl-9,12,13,14-tetrahydro-imidazo[4″,5″:5′,6′]benzo-[1′,2′:2,3]azocino[4,5,6-hi]indolizine-2-carbonyl)-phenyl)-4-(((1r,4r)-4-methoxycyclohexyl)-amino)but-2-enamide]", "values": [{"measurement": "IC50", "setting": "[1]; [3]", "result": 0.0198, "unit": "µM"}, {"measurement": "IC50", "setting": "MIA PaCa-2 cells; [4]", "result": 0.0155, "unit": "µM"}]}, {"smiles": "Cc1nc2c3c(c(C(F)(F)F)cc2n1C)-c1cccn2c(C(=O)c4cc(F)c(NC(=O)/C=C/CNC5(C)CCOCC5)c(F)c4)cc(c12)CCN3C", "note": "(single isomer, unassigned) [Example 70, (E)-N-(2,6-difluoro-4-(9,10,12-trimethyl-7-(tri-fluoromethyl)-9,12,13,14-tetrahydroimidazo[4″,5″: 5′,6′]benzo[1′,2′:2,3]-azocino[4,5,6-hi]indol-izine-2-carbonyl)phenyl)-4-((4-methyltetrahydro-2H-pyran-4-yl)amino)but-2-enamide]", "values": [{"measurement": "IC50", "setting": "[1]; [3]", "result": 0.00985, "unit": "µM"}, {"measurement": "IC50", "setting": "MIA PaCa-2 cells; [4]", "result": 0.00249, "unit": "µM"}]}, {"smiles": "Cc1nc2c3c(c(C(F)(F)F)cc2n1C)-c1cccn2c(C(=O)c4cc(F)c(NC(=O)/C=C/CNC5(C)COC5)c(F)c4)cc(c12)CCN3C", "note": "(single isomer, unassigned) [Example 71, (E)-N-(2,6-difluoro-4-(9,10,12-trimethyl-7-(trifluoromethyl)-9,12,13,14-tetrahydroimidazo[4″,5″:5′,6′]benzo[1′,2′:2,3]azocino[4,5,6-hi]indolizine-2-carbonyl)phenyl)-4-((3-methyloxetan-3-yl)amino)but-2-enamide]", "values": [{"measurement": "IC50", "setting": "[1]; [3]", "result": 0.0202, "unit": "µM"}, {"measurement": "IC50", "setting": "MIA PaCa-2 cells; [4]", "result": 0.0096, "unit": "µM"}]}]}
